The values below come from patent US20220177587A1, “METHODS AND USES OF VARIANT CD80 FUSION PROTEINS AND RELATED CONSTRUCTS” (Alpine Immune Sciences, Inc., priority 2018, published 2022).

Data set [1] has as its system huPD-L1/MC38 cells. The experiment in a line: huPD-L1 MC38 tumor model, combination with oxaliplatin. The format is in vivo, mouse. The method, then:
To test the anti-tumor activity of the exemplary variant, it was evaluated alone or in combination with the platinum-based chemotherapeutic agent, oxaliplatin, in mice bearing human PD-L1-expressing MC38 tumors, which is a syngeneic mouse colon carcinoma solid tumor model.
The huPD-L1 MC38 cell line was generated by transducing parental MC38 cells with huPD-L1 using viral transduction. Eight-week old female C57/BL6NJ mice (The Jackson Laboratories, Sacramento, Calif.) were implanted subcutaneously with 0.5×10^6 huPD-L1/MC38 cells. For injections, 0.1 mL of cells (0.5×10^6 cells) were injected subcutaneously (SC) in the right mid-flank region.
On day 1, mice were randomized into four groups of 10 mice each, with all mice in each group having about equal mean tumor volumes (˜108 mm^3). Tumors were measured with electronic calipers two-dimensionally twice weekly, beginning on day 7 post-tumor cell implant (referred to as “day 1”). Tumor volume was calculated as length×(width×2)×0.5, with the length being the longer of the two measurements.
As shown, 30% of the mice in the monotherapy group were tumor free by the end of the study.

For data set [2], the system named is human PD-L1-transduced MC38 tumor. The experiment in a line: huPD-L1 MC38 tumor model, combination with anti-PD-L1 or anti-CD28 blocking antibodies. The format is in vivo, mouse. The method, then:
Anti-tumor activity was evaluated by serial tumor measurements.

The subject of data set [3] is MC38 hPD-L1 tumor cells. The experiment in a line: MC38 hPD-L1 tumor model in C57BL/6 mice. The format is in vivo, mouse. How it is done:
Mouse MC38 tumor cells were stably transfected with human PD-L1 (MC38 hPD-L1) and implanted subcutaneously into C57BU6 mice. […] Tumor volume was tracked over time.
70 female C57CL/6 mice, containing similar tumor volumes of approximately 50-51 mm^3, following implantation of MC38 hPD-L1 tumor cells, were staged and divided into 5 treatment groups containing 14 mice each. […] Tumor volumes were measured on days 7, 10, and 12. On day 13, 5 animals were sacrificed for analysis as described in the sections below. Tumor measurements resumed for the remaining 9 mice for each group on days 17, 20 and 27. On days 26, 28, and 31, the animals in Group 1 (Fc isotype control) received an intratumoral injection of 100 μg E35D/M47L CD80-IgV-Fc.
95 female C57BU6 mice were implanted with MC38 hPD-L1 tumor cells. The tumors were staged on Day 7, and 77 mice with similar tumor volumes of approximately 60 mm^3 were divided into 7 treatment groups containing 11 mice each.
On day 49, tumor-free mice, from Groups 3, 4, 6, and 7, and 2 naïve C57CL/6 mice were re-challenged with an additional injection of hPD-L1 MC38 cells. Tumor volumes were measured on days 56, 59, and 63. The results are depicted in FIG. 13. […] At day 59, 8/8 mice from Group 3, 1/2 mice from Group 4, 1/1 mouse from Group 6, and 2/2 mice from Group 7 were tumor-free, and by day 63, all mice in Group 3, Group 4, Group 6, and Group 7 were tumor-free.
75 animals were staged into 3 treatment groups 7 days after implantation with hPD-L1 MC38 tumor cells. […] Tumor volumes were measured every 3-4 days, from Day 11 until Day 35. 3 days after the 1st dose, 2nd dose and 3rd dose, 4 mice from each group were sacrificed for tumor and LN analyses, leaving 13 mice for tumor volume measurements throughout the study period.

The target of data set [4] is CD28 (Homo sapiens, UniProt P10747). The experiment in a line: Jurkat/IL2 + K562/OKT3/PD-L1 reporter assay. The format is cell-based. Details: host or cells: Jurkat cells expressing an IL-2-luciferase reporter. The following applies: IgV-Fc (inert); various concentrations; FIG. 5.
Data set [5] has as its system huPD-L1/MC38 cells. The experiment in a line: huPD-L1 MC38 tumor model, combination with anti-CTLA-4. The format is in vivo, mouse. The method, then: Eight-week old female C57/BL6NJ mice (The Jackson Laboratories, Sacramento, Calif.) were implanted subcutaneously with 1.5×10^6 huPD-L1/MC38 cells (described in Example 27. On days 8, 11 or 14 post-tumor cell implant mice, the tested molecules were delivered through intraperitoneal (IP) injection as set forth in Table E40. Tumor volume was determined substantially as described in Example 27.

Data set [6] concerns primary human pan T cells. The experiment in a line: Cytokine production following PD-L1-dependent costimulation. The format is cell-based. The following applies: mitomycin-c treated K562/OKT3/PDL1 aAPC; FIG. 6.
A short description of data set [7]: Monkey PK model. The format is in vivo, cynomolgus monkey. The following applies: monkey PK model estimate. From the text: A PK model was designed as a two compartment model with intercompartmental distribution (Q) between the first compartment (Central Compartment, V1) and the second compartment (Peripheral Compartment, V2). To capture intraperitoneal (IP) or subcutaneous (SC) injection routes, a third compartment (Depot Compartment) was included with a first-order rate constant (Ka) linking the third compartment uni-directionally to the first compartment. The model also included a constant F to account for loss in the amount of drug available to diffuse from the third compartment (Depot Compartment) to the first compartment (Central Compartment, V1) due to IP or SC injection. The total amount of available drug in the third compartment (Depot Compartment) is described as F×Dose. For intravenous injections (IV), the third compartment (Depot Compartment) was omitted.
For monkeys, linear clearance from the first compartment (Central Compartment, V1) was assumed.

Setting [8] is: in combination with oxaliplatin.
The mark [9] stands for this setting: 3 injections of 100 μg on Days 8, 10 and 12.
[10] abbreviates: re-challenged on day 49 with hPD-L1 MC38 cells.

In the case of “H18Y/A26E/E35D/M47L/V68M/A71G/D90G: variant CD80 IgV-Fc (inert), IgV SEQ ID NO:491”, in data set [1] (setting [8]), the tumor free mice worked out at 90% and the “tumor growth over time” value is on record as “significantly greater reductions in tumor growth over time were observed than with either of the agents alone”. In addition, the “mean TGI” value in data set [1] (in combination with oxaliplatin, day 25) was about 100%. The median tumor volume result in data set [1] (in combination with oxaliplatin, eleven days after start of dosing) is “dropped to zero”. Moreover, in data set [1] (monotherapy), the antitumor activity result was “had potent antitumor activity” and the “tumor free mice by the end of the study” value is recorded as 30%. Also, the antitumor activity result in data set [2] (coadministration with anti-CD28 or anti-PD-L1) is recorded as “coadministration with either anti-CD28 or anti-PD-L1 reduced the antitumor activity”. In addition, the antitumor activity result in data set [2] (monotherapy 100 μg IP) was “demonstrated activity superior to PD-L1 blockade alone”. In addition, the “mice with no detectable tumors (tumor-free) upon completion of the study” value in data set [3] (100 μg on days 7, 9 and 11, 11 mice per group) is listed as 8 mice. Besides, in data set [3] (setting [9]), the “tumor-free mice at day 35” value is listed as 6/13 and the “tumor-free mice on Day 18” value is reported as 6/13. The “tumor growth / tumor volume” value in data set [3] (i.p. dosing, compared to Fc control or anti-PD-L1) is “greater decrease in the median and mean tumor volumes”. Also, in data set [3] (setting [10]), the “tumor-free mice after re-challenge, day 59” value is reported as 8/8 and the “tumor-free mice after re-challenge, day 63” value is “tumor-free”. Moreover, the “PD-L1 dependent CD28 costimulation (luciferase activity)” value in data set [4] was “induced PD-L1 dependent CD28 costimulation in a dose-dependent manner”. Moreover, in data set [5] (in combination with anti-CTLA-4), the “tumor growth over time” value is reported as “significantly greater reduction in tumor growth over time was observed than with either agent alone”. In addition, the antitumor activity result in data set [5] (monotherapy) is “had potent antitumor activity”. For the same substance, the “IL-2 secretion in culture supernatants” value in data set [6] is “resulted in IL-2 secretion in culture supernatants”. In addition, in data set [7], the CL was 1.31 mL/h/kg, the F is reported as 66.4%, the Ka was 0.728 day⁻¹ and the Q is 4.37 mL/h/kg. In data set [7], the V1 was 0.0509 L/kg and the V2 was 0.158 L/kg.
